Laboratory results taken from ChEMBL document CHEMBL1150411, “4-(Phenylaminomethylene)isoquinoline-1,3(2H,4H)-diones as potent and selective inhibitors of the cyclin-dependent kinase 4 (CDK4)” (J Med Chem, 2008).

How the values were obtained:
[1] = molecular target: Cyclin-dependent kinase 1/cyclin B1 (Homo sapiens, UniProt P06493); assay: Inhibition of CDK1/Cyclin B1 expressed in Sf9 cells-baculovirus system assessed as retinoblastoma susceptibility gene product phosphorylation
[2] = molecular target: Cyclin-dependent kinase 2 (Homo sapiens, UniProt P24941); assay: Inhibition of CDK2/cyclin E expressed in Sf9 cells-baculovirus system assessed as retinoblastoma susceptibility gene product phosphorylation
[3] = molecular target: Cyclin-dependent kinase 4/cyclin D1 (Homo sapiens, UniProt P11802); assay: Inhibition of CDK4/cyclin D1 expressed in Sf9 cells-baculovirus system assessed as retinoblastoma susceptibility gene product phosphorylation
Chain of Cyclin-dependent kinase 4/cyclin D1 (P11802 whole entry): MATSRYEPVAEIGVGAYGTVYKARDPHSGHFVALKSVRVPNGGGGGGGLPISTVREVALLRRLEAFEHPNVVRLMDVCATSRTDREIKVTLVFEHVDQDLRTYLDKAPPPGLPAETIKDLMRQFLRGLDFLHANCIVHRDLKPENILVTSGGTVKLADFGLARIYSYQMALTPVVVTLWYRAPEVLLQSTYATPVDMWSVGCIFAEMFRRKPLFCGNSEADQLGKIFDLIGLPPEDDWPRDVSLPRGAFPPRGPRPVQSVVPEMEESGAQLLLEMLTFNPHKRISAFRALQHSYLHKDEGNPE
Chain of Cyclin-dependent kinase 4/cyclin D1 (P24385 whole entry, further chain): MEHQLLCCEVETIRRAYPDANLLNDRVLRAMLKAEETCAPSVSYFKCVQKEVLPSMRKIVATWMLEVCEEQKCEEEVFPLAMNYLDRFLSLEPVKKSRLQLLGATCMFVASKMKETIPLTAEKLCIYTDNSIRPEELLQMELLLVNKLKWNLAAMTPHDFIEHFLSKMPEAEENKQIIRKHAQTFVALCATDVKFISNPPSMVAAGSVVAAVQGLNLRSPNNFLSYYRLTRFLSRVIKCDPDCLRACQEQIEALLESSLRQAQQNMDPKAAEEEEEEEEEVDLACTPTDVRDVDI

Chain of Cyclin-dependent kinase 1/cyclin B1 (P06493 whole entry): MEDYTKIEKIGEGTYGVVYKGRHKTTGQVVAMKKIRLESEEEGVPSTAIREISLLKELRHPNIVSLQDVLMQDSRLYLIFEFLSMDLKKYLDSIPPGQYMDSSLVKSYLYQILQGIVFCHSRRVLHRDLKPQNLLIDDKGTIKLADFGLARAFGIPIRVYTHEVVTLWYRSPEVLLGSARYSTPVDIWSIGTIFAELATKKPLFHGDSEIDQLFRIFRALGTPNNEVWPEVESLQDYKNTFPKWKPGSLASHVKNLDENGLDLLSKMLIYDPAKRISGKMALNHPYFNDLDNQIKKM
Chain of Cyclin-dependent kinase 1/cyclin B1 (P14635 whole entry, further chain): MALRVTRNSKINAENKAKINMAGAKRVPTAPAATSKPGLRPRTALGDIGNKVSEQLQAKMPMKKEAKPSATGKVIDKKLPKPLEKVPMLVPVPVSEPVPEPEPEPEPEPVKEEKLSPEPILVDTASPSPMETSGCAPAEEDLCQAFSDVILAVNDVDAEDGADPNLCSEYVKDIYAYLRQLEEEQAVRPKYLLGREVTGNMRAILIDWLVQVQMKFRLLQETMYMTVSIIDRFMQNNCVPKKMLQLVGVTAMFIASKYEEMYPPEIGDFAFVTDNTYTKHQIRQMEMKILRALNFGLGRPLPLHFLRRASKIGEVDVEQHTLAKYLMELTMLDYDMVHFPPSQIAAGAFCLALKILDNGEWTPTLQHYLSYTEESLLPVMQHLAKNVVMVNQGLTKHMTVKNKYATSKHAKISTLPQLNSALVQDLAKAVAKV

IC50 [1] [µM]	IC50 [2] [µM]	IC50 [3] [µM]	SMILES
> 50	> 50		CN1CCN(c2ccc3c(c2)/C(=C/Nc2ccc(CN4CCCCC4)cc2)C(=O)NC3=O)CC1
> 50		12.1	CN1CCN(c2ccc(N/C=C3\C(=O)NC(=O)c4cc(Br)ccc43)cc2)CC1
> 50	> 50	2	COc1ccc2c(c1)/C(=C/Nc1ccc(CN3CCCCC3)cc1)C(=O)NC2=O
> 50	> 50		O=C1NC(=O)c2ccc(-c3ccc(O)cc3)cc2/C1=C/Nc1ccc(CN2CCCCC2)cc1
> 50	> 50		O=C1NC(=O)c2ccc(N3CCOCC3)cc2/C1=C/Nc1ccc(CN2CCCCC2)cc1
13.8	> 50	11	CC(=O)Nc1ccc2c(c1)/C(=C/Nc1ccc(N3CCN(C)CC3)cc1)C(=O)NC2=O
> 50	> 50	1.62	CN1CCN(c2ccc(N/C=C3\C(=O)NC(=O)c4ccc(N5CCCCC5)cc43)cc2)CC1
> 50	> 50	> 50	O=C1NC(=O)c2ccc(-c3ccc(Oc4ccccc4)cc3)cc2/C1=C\Nc1ccc(CN2CCCCC2)cc1
> 50	> 50	0.32	O=C1NC(=O)c2ccc(-c3ccccc3)cc2/C1=C/Nc1ccc(CN2CCCCC2)cc1
> 50	> 50		O=C1NC(=O)c2ccc(-c3ccc(Cl)cc3)cc2/C1=C/Nc1ccc(CN2CCCCC2)cc1
> 50	> 50	15.1	O=C1NC(=O)c2ccc([N+](=O)[O-])cc2/C1=C/Nc1ccc(CN2CCCCC2)cc1
> 50	> 50	1	O=C1NC(=O)c2ccc(N3CCCCC3)cc2/C1=C/Nc1ccc(CN2CCCCC2)cc1
> 50			O=C1NC(=O)c2ccc(Nc3ccccc3)cc2/C1=C/Nc1ccc(CN2CCCCC2)cc1
> 50			COc1cccc(-c2ccc3c(c2)/C(=C/Nc2ccc(CN4CCCCC4)cc2)C(=O)NC3=O)c1
> 50	> 50	0.13	COc1ccc(-c2ccc3c(c2)/C(=C/Nc2ccc(CN4CCCCC4)cc2)C(=O)NC3=O)cc1
> 50	> 50		O=C1NC(=O)c2ccc(-c3ccoc3)cc2/C1=C/Nc1ccc(CN2CCCCC2)cc1
> 50	> 50	0.11	CN1CCN(c2ccc(N/C=C3\C(=O)NC(=O)c4ccc(-c5ccoc5)cc43)cn2)CC1
> 27	21	10	O=C1NC(=O)c2ccccc2/C1=C/Nc1ccc(CN2CCOCC2)cc1
> 50	> 50	0.05	O=C1NC(=O)c2ccc(-c3cccnc3)cc2/C1=C/Nc1ccc(CN2CCCCC2)cc1
> 50			O=C1NC(=O)c2ccc(Cl)cc2/C1=C/Nc1ccc(CN2CCCCC2)cc1
		14.3	CN1CCN(c2ccc(N/C=C3\C(=O)NC(=O)c4ccc(/C=C/c5ccccc5)cc43)cc2)CC1
> 50			CN1CCN(c2ccc(N/C=C3\C(=O)NC(=O)c4ccc(-c5ccoc5)cc43)nc2)CC1
> 27	19.6	3.3	O=C1NC(=O)c2ccccc2/C1=C/Nc1ccc(CN2CCCCC2)cc1
> 50		3.5	CC(=O)Nc1ccc2c(c1)/C(=C/Nc1ccc(CN3CCCCC3)cc1)C(=O)NC2=O
> 50	> 50	0.39	CN1CCN(c2ccc(N/C=C3\C(=O)NC(=O)c4ccc(-c5ccccc5)cc43)cc2)CC1
> 28	> 28	4.1	CN1CCN(c2ccc(N/C=C3\C(=O)NC(=O)c4ccccc43)cc2)CC1
> 29		> 29	O=C1NC(=O)c2ccccc2/C1=C/Nc1ccc(N2CCOCC2)cc1
> 50			CN1CCN(c2ccc(N/C=C3\C(=O)NC(=O)c4ccc(C(=O)N(C)C)cc43)cc2)CC1

SMILES	IC50 [1] [µM]	IC50 [2] [µM]	IC50 [3] [µM]
CN(C)C(=O)c1ccc2c(c1)/C(=C/Nc1ccc(CN3CCCCC3)cc1)C(=O)NC2=O	> 50	39.8	
